Reference: patent US10533018B2, “Antimicrobial prochelators to target drug-resistant bacteria and methods of making and using the same” (Duke University, priority 2015, dated 2020)
pIC50: −log10 of the molar value. Where two headings read alike, the source gives them in different places.

Experiments:
[1] = tested on: UTI89 E. coli; assay: Broth microdilution growth inhibition (OD600); type: cell-based, Escherichia coli; settings: UTI89 E. coli
Source text: (§1) Bacterial culture reagents including LB broth (Lennox), agar-agar, ampicillin, and ceftriaxone were purchased from Sigma Aldrich Corp. The Escherichia coli (E. coli) K12 strain HB101 and pGLO E. coli transformation kit purchased from Bio-Rad Laboratories Inc. HB101 was transformed with the bla gene via the pGLO plasmid. The bla gene encodes for a TEM-1 β-lactamase that imparts penicillin resistance to the mutant E. coli K-12 strain (+Bla). Strains E. coli UTI89, [27] pCOM-GFP-transformed E. coli UTI89 (pCOM-GFP), [28] and Methicillin-Resistant Staphylococcus aureus (MRSA) clone USA300 [29] have been previously described. The Extended-Spectrum β-Lactamase (ESBL) E. coli, Klebsiella pneumonia (Klebs), and Pseudomonas aeruginosa (Pseudo) strains were clinical isolates acquired deidentified from Duke Hospital and tested for antibiotic susceptibility in the Clinical Microbiology Laboratory using standard clinical susceptibility methods.
(§2) Cultures were incubated on LB (Lennox, Sigma) agar at 37° C. in ambient atmospheric composition. Before beginning an experiment, a single bacterial colony grown on LB agar was resuspended in 2 mL LB broth and incubated overnight to form a turbid cell suspension. The overnight culture was diluted 1:100 in LB and used immediately as the working culture. To assess the antibacterial activity of compounds, the working bacterial culture was aliquoted in a clear, flat-bottomed, 96-well polystyrene plate (Costar) and the compound of interest was added in 2-fold serial dilution from 500 to 1 μM. Plates were covered with a breathable sealing film (Aeroseal, Genesee Scientific) and incubated at 37° C. in ambient atmospheric composition with shaking at 200 rpm. Optical density at 600 nm was recorded after 4 h and 20 h for each well using a standard OD600 protocol with LB serving as the blank. The resulting dose-response curves were fit to a nonlinear regression in GraphPad Prism Version 6 to calculate the IC50 of DB4-51 in each strain.
(§3) The ability of DB4-162 to inhibit bacterial growth was assessed by a traditional broth microdilution method that assesses the turbidity of liquid cultures in the presence of varying concentrations of the compound. As described above for DB4-51, the antibacterial properties of the prochelator DB4-162 were assessed in non-pathogenic lab-strain HB101K-12 E. coli and compared to the pGLO-transfected mutant HB101K-12 E. coli that express β-lactamase. Clinically relevant pathogenic bacteria were also screened, including UTI89 E. coli, pCOM transfected UTI89 E. coli (pCOM), extended spectrum β-lactamase (ESBL) E. coli, methicillin-resistant Staphylococcus aureus (MRSA), and Klebsiella pneumonia (Klebs). In addition to being naturally resistant to many β-lactam antibiotics, MRSA can produce a number of β-lactamases. […] It should be noted that all of the bacteria tested are gram-negative except for gram-positive MRSA.
(§4) The goal of this screen was to calculate the IC50 of the prochelator in a series of pathogenic bacteria and compare these values to the IC50 of known antibiotics in those same strains to determine the relative effectiveness of DB4-162 against the drug-resistant and drug-susceptible bacteria in comparison to current antibiotic treatment options. Bacterial growth was monitored in LB broth at 37° C. in the presence and absence of DB4-162 for 20 hours. A concentration gradient of DB4-162 from 500 to 0 μM was used to screen all 7 strains of bacteria and the dose-response curves were fit to a […] to calculate the IC50 of DB4-162 in each strain. These IC50 values are an approximation of how effectively DB4-162 inhibits the growth of each bacterial strain in vitro.
(§5) IC50 values for ampicillin were calculated via broth microdilution in LB broth only. Values are listed as the mean followed by the 95% confidence interval about the mean. Mean and confidence intervals were calculated from a variable slope, nonlinear regression fit to the dose-response OD600 data. […]

[2] = tested on: Methicillin-Resistant Staphylococcus aureus (MRSA); assay: microbe, parasite or virus in culture; type: cell-based
Source text: as §1, §2, §3, §4, §5

[3] = tested on: ESBL E. coli; assay: microbe, parasite or virus in culture; type: cell-based, Escherichia coli; settings: for pIC50: ESBL E. coli
Source text: as §1, §2, §3, §4, §5

[4] = tested on: −Bla K-12 E. coli; assay: microbe, parasite or virus in culture; type: cell-based, Escherichia coli; settings: −Bla K-12 E. coli
Source text: as §1, §2, §3, §4, §5

[5] = tested on: +Bla K-12 E. coli; assay: microbe, parasite or virus in culture; type: cell-based, Escherichia coli
Source text: as §1, §2, §3, §4, §5

[6] = Calcein fluorescence assay for Cu competition; type: physicochemical
Experimental: FIG. 11: To solutions of 2 μM calcein in pH 7.4 PBS was added 2.4 μM CuCl2 and the samples were fully equilibrated at room temperature for 2 hours. Next, 20 μM TAT, 20 μM DB4-162, 0.1 units/mL β-lactamase were added and the fluorescence at 500 nm was recorded after one hour.
A calcein fluorescence assay for metal competition was utilized in order to evaluate the relative metal-binding affinity of DB4-51 compared to PT. The fluorescence intensity of the probe calcein is quenched by more than 90% upon binding Cu^2+. […] However, when incubated with 10 equivalents of DB4-51 and 0.1 units/mL Type III β-lactamase from Enterobacter cloacae, there is an 85% return in calcein fluorescence, which correlates well with the 90% return observed for PT itself at the same concentration.
FIG. 4: Relative Cu binding assay with DB4-51 and PT against calcein. Solutions of 2 μM calcein and 2.4 μM CuCl2 in pH 7.4 PBS were equilibrated at room temperature for 2 hours prior to addition of 20 μM PT, 20 μM DB4-51, and/or 0.1 units/mL β-lactamase (Bla).
The calcein assay was utilized in order to assess the relative copper chelating ability of the prochelator and TAT. The fluorescence emission of calcein is quenched by more than 90% in the presence of 1.2 equivalents of CuCl2 (FIG. 11). […] The addition of 0.1 units/mL β-lactamase alone has no effect on the quenched fluorescence signal of the Cu-calcein solution. […] However, when incubated with 10 equivalents of DB4-162 and 0.1 units/mL β-lactamase there is a 90% return in calcein fluorescence. […] While it is unclear why 10 equivalents of TAT are insufficient to out-compete calcein for copper, it may be related to the propensity of TAT to form other species in aqueous media.

[7] = tested on: pCOM E. coli; assay: microbe, parasite or virus in culture; type: cell-based, Escherichia coli; settings: for pIC50: Escherichia coli, pCOM E. coli
Source text: as §1, §2, §3, §4, §5

[8] = Escherichia coli, +Bla K-12 E. coli, LB + 10 μM CuCl2
[9] = Escherichia coli, +Bla K-12 E. coli, LB + 500 μM BCS
[10] = 2 μM calcein + 2.4 μM CuCl2, pH 7.4 PBS, 20 μM (10 equivalents) compound alone, 1 h
[11] = as above, 10 equivalents compound + 0.1 units/mL β-lactamase
[12] = Escherichia coli, LB + 10 μM CuCl2
[13] = Escherichia coli, LB + 500 μM BCS
[14] = Escherichia coli, LB + 10 μM CuCl2, read-out: IC50
[15] = Escherichia coli, LB + 500 μM BCS, read-out: IC50
[16] = Staphylococcus aureus, LB + 500 μM BCS
[17] = Escherichia coli, +Bla K-12 E. coli, LB broth

Row | SMILES | pIC50 [5, 8] | pIC50 [5, 9] | return in calcein fluorescence [6, 10] | return in calcein fluorescence [6, 11] | pIC50 [1, 12] | pIC50 [1, 13] | pIC50 [3, 13] | pIC50 [4, 14] | pIC50 [4, 15] | pIC50 ([1]; Escherichia coli, LB broth) | pIC50 [2, 16] | pIC50 ([7]; LB + 10 μM CuCl2) | pIC50 ([7]; LB + 500 μM BCS) | pIC50 ([7]; LB broth) | pIC50 ([3]; Escherichia coli, LB broth) | pIC50 [5, 17] | further results
1 | CC1(C)S[C@@H]2[C@H](NC(=O)[C@H](N)c3ccccc3)C(=O)N2[C@H]1C(=O)O [Ampicillin] | < 3.60 | < 3.60 | – | – | – | – | – | – | – | – | – | – | – | – | – | – | pIC50 ([1]; LB broth): 8.52; pIC50 ([1]; LB broth, listed as ampicillin): 5.52; pIC50 ([2]; LB broth): < 3.60; pIC50 ([3]; LB broth): < 3.60; pIC50 ([4]; LB broth, listed as ampicillin, read-out: IC50): 5.10; pIC50 ([4]; LB broth, read-out: IC50): 8.10; pIC50 ([5]; +Bla K-12 E. coli, LB broth): < 3.60
2 | O=C(Cc1ccccc1)N[C@@H]1C(=O)N2C(C(=O)O)=C(CSc3cccc[n+]3[O-])CS[C@H]12 [DB4-51, 2-((((6R,7R)-2-carboxy-8-oxo-7-(2-phenylacetamido)-5-thia-1-azabicyclo[4.2.0]oct-2-en-3-yl)methyl)thio)pyridine 1-oxide] | – | 7.29 | does not compete with calcein for Cu binding | 85% | 7.68 | 7.77 | 7.77 | 7.82 | 7.42 | – | – | – | – | – | – | – | change in IC50 value as a function of Cu availability ([2]; Cu-replete vs Cu-limited): 55 fold; change in IC50 value depending on Cu status ([7]; pCOM-GFP UTI89 E. coli, Cu replete vs Cu depleted): 10 fold; pIC50 ([4]; Escherichia coli, pre-incubated with β-lactamase, read-out: IC50 after pre-incubation with β-lactamase): 5.05; change in IC50 value depending on Cu status ([5]; +Bla K-12 E. coli, Cu replete vs Cu depleted): less than 4 fold; pIC50 ([5]; Escherichia coli, read-out: IC50 after pre-incubation with β-lactamase, +Bla K-12 E. coli, pre-incubated with β-lactamase): 5.10
3 | Cc1csc(=S)n1OCC1=C(C(=O)O)N2C(=O)[C@@H](NC(=O)Cc3ccccc3)[C@H]2SC1 [DB4-162, (6R,7R)-3-(((4-methyl-2-thioxothiazol-3(2H)-yl)oxy)methyl)-8-oxo-7-(2-phenylacetamido)-5-thia-1-azabicyclo[4.2.0]oct-2-ene-2-carboxylic acid] | 3.83 | 3.75 | approximately 50% | 90% | 4.01 | 4.11 | 4.30 | 4.41 | 4.27 | 4.03 | 5.62 | 4.03 | 3.77 | 3.95 | 4.66 | 3.84 | pIC50 ([2]; Staphylococcus aureus, LB + 10 μM CuCl2): 5.57; pIC50 ([2]; Staphylococcus aureus, LB broth): 5.62; pIC50 [3, 12]: 4.68; IC50 in ESBL E. coli lower than in −Bla K-12 E. coli ([3]; LB broth): 90%; pIC50 ([4]; Escherichia coli, LB broth, read-out: IC50): 3.64
4 | [O-][n+]1ccccc1S [PT, 2-mercaptopyridine N-oxide] | – | 7.72 | 90% | – | 8.40 | 8.22 | – | – | – | 8.70 | 7.96 | 8.40 | 8.15 | 8.70 | 8.30 | 8.22 | –
